Source: patent publication US11839683B2, “Method of rapidly achieving therapeutic concentrations of triptans for treatment of migraines” (EMERGEX USA CORPORATION, priority 2016, dated 2023)
Read-outs that look alike come from different tables or passages of the source.

Legend:
migraine = conditions: cited from earlier work
[1] = in vivo
Excerpt: (§1) This was a single-center, open-label, randomized five-way crossover study (Part 1) followed by a sequential study of two additional treatments (Parts 2 and 3). After obtaining informed consent and establishing eligibility, each subject received each of the seven study treatments once, followed by in-clinic monitoring and extensive blood sample collection for pharmacokinetic analysis. […] Plasma samples from the initial dosing days were sent to the analytical laboratory for analysis, and tolerability for each of the dose levels was summarized. […] During Part 3, subjects received a single 3.8 mg patch (applied with a 0.52 J applicator) and also completed identical procedures to the previous dosing days. After completion of the seven dosing days, subjects were assessed one final time and dismissed from the study.
(§2) PK parameters were summarized by treatment group using descriptive statistics (arithmetic means, standard deviations, coefficients of variation, sample size, minimum, maximum, and median).

clinical = conditions: human, in vivo
Protocol: The final treatment administered was 3.8 mg on a 10 cm^2 patch using an applicator with 0.52 Joule of application energy in the intracutaneous microneedle system described herein. The products tested were:
as §1
Twenty subjects were enrolled in the study, 10 males and 10 females. The subjects mean age was 29 years±3.5 years with a mean BMI of 24.4±3.5.
as §2
Graphs of apparent dose linearity and proportionality of PK parameters (AUCt, AUCinf and Cmax) were compiled.

[2] = cited from earlier work
[3] = TABLET 80 mg, 1 hour, Sheftell et al 2003
[4] = TABLET 80 mg, 2 hour, Sheftell et al 2003
[5] = TABLET 80 mg, 4 hour, Sheftell et al 2003
[6] = TABLET 10 mg, 1 hour, Tfelt-Hansen et al, 1998
[7] = TABLET 10 mg, 2 hour, Tfelt-Hansen et al, 1998
[8] = WAFER 5 mg, 1 hour, Ahrens et al, 1999
[9] = WAFER 5 mg, 2 hour, Ahrens et al, 1999
[10] = WAFER 10 mg, 1 hour, Ahrens et al, 1999
[11] = WAFER 10 mg, 2 hour, Ahrens et al, 1999
[12] = TABLET 100 mg, 1 hour, Tfelt-Hansen et al, 1998
[13] = TABLET 100 mg, 2 hour, Tfelt-Hansen et al, 1998
[14] = TABLET 2.5 mg, 1 hour, Bomhof et al, 1999
[15] = TABLET 2.5 mg, 2 hour, Bomhof et al, 1999

CN1CCC[C@@H]1Cc1c[nH]c2ccc(CCS(=O)(=O)c3ccccc3)cc12 [Eletriptan]
% PAIN FREE (migraine; [3]): 10.0%
% PAIN RELIEF (migraine; [3]): 32.0%
% PAIN FREE (migraine; [4]): 27.0%
% PAIN RELIEF (migraine; [4]): 59.0%
% PAIN FREE (migraine; [5]): 49.0%
% PAIN RELIEF (migraine; [5]): 79.0%

CNCCc1c[nH]c2ccc(C[C@H]3COC(=O)N3)cc12 [N-desmethyl zolmitriptan]
Mean AUCinf of N-desmethyl metabolite ([1]; human): 14.55 ng·H/mL
Mean Cmax of N-desmethyl metabolite ([1]; human): 2.08 ng/mL
Tmax of N-desmethyl metabolite ([1]; human): 54.7 to 65.0 min
Mean AUCinf of N-desmethyl metabolite ([1]; human, 0.48 mg): 1.38 ng·H/mL
Mean Cmax of N-desmethyl metabolite ([1]; human, 0.48 mg): 0.22 ng/mL
Mean AUCinf of N-desmethyl metabolite ([1]; human, 3.8 mg): 8.17 ng·H/mL
Mean Cmax of N-desmethyl metabolite ([1]; human, 3.8 mg): 1.77 ng/mL
elimination half life (t1/2) of the metabolite ([1]; human, po): 2.7-3.31 H
time to peak plasma concentration of the N-desmethyl metabolite [1]: around 1 hour
time to peak plasma concentration of the N-desmethyl metabolite ([1]; po): 2.7 h

CN(C)CCc1c[nH]c2ccc(C[C@H]3COC(=O)N3)cc12 [Oral Zolmi]
AUC0-last/Dose (clinical; po, 2.5 mg): 8.6
Tmax Med (Range) (clinical; po, 2.5 mg): 60 (30-240)

CN(C)CCc1c[nH]c2ccc(Cn3cncn3)cc12 [Rizatriptan]
% PAIN FREE (migraine; [6]): 10.4%
% PAIN RELIEF (migraine; [6]): 36.6%
% PAIN FREE (migraine; [7]): 40.3%
% PAIN RELIEF (migraine; [7]): 67.0%
% PAIN FREE (migraine; [8]): 7.7%
% PAIN RELIEF (migraine; [8]): 39.8%
% PAIN FREE (migraine; [9]): 34.8%
% PAIN RELIEF (migraine; [9]): 58.6%
% PAIN FREE (migraine; [10]): 13.0%
% PAIN RELIEF (migraine; [10]): 44.9%
% PAIN FREE (migraine; [11]): 42.2%
% PAIN RELIEF (migraine; [11]): 74.1%

CNS(=O)(=O)Cc1ccc2[nH]cc(CCN(C)C)c2c1 [SC Suma]
Tmax Med (Range) (clinical; sc, 6 mg): 10 (5-20)

CNS(=O)(=O)Cc1ccc2[nH]cc(CCN(C)C)c2c1 [Sumatriptan, sumatriptan]
Tmax after oral tablet administration ([2]; oral tablet): about 2 hours
bioavailability, oral administration (as a succinate) ([2]; oral): about 15%
Tmax achieved earlier than the conventional tablet ([2]; rapid-release tablet formulation, on average): 10 to 15 min
% PAIN FREE (migraine; [12]): 7.8%
% PAIN RELIEF (migraine; [12]): 27.9%
% PAIN FREE (migraine; [13]): 32.8%
% PAIN RELIEF (migraine; [13]): 61.8%

CN[C@@H]1CCc2[nH]c3ccc(C(N)=O)cc3c2C1 [frovatriptan]
efficacy in 2-hour response, 2-hour pain free compared to the other triptans (migraine; oral): lowest efficacy

CNS(=O)(=O)CCc1ccc2[nH]cc(C3CCN(C)CC3)c2c1 [naratriptan]
% PAIN FREE (migraine; [14]): 3.3%
% PAIN RELIEF (migraine; [14]): 27.7%
% PAIN FREE (migraine; [15]): 20.7%
% PAIN RELIEF (migraine; [15]): 48.4%
pain freedom at 2 hours (migraine; lowest oral dose): 18%
pain relief at 2 hours (migraine; lowest oral dose): 49%
